Laboratory results: patent publication US20260258420A1, “COMPOSITIONS AND METHODS FOR THE TREATMENT OF HUMAN PAPILLOMAVIRUS-DRIVEN CANCERS” (priority 2023, published 2026)

What was measured:
[1] = test system: HPV-negative HNSCC cells (HN31, UMSCC4, and MDA886LN) with RB1 knockdown; assay: Apoptosis after RB1 depletion in HPV-negative cells (annexin V, immunoblot); assay type: cell-based
Experimental: FIG. 4B, HPV-negative HNSCC cells (HN31, UMSCC4, and MDA886LN) were infected with distinct, lentivirus-based shRNAs (Sh2, Sh4, and Sh6) to stably knock down the expression of RB1 or were treated with control (Ctrl) shRNA. Cells were then treated with 300 nmol/L alisertib for 24 hours before annexin V-PE/7AAD staining and analysis with flow cytometry. The bar graph represents the ratio of apoptosis (late plus early) among different groups. Values are the means±the standard deviations for 3 independent experiments. *P<0.05; **P<0.005; unpaired, 2-tailed Student t-test. FIG. 4C, cells from FIG. 4B were treated with 300 nmol/L alisertib for 24 hours before lysis and immunoblotting with the indicated antibodies. […] Representative results from 3 independent experiments are shown. Cl, cleaved; Fl, full length; GAPDH, glyceraldehyde 3-phosphate dehydrogenase; Ox, overexpression.
To measure apoptosis, TUNEL staining was performed with an APO-BRDU Kit (BD Biosciences, San Jose, CA) and annexin V/propidium iodide staining with an FITC Annexin V Apoptosis Detection Kit PE (eBioscience, San Diego, CA) as described previously (Kalu, et al., Cancer Lett 2018; 431:64-72). […] Data were acquired with a 3-laser, 10-color Gallios flow cytometer (Beckman Coulter, Brea, CA) and analyzed using Kaluza software, RRID:SCR_016182 (Beckman Coulter, Brea, CA). Assays were performed in triplicate, and each test was completed twice on different days.
The lentiviral-based shRNA (GIPZ plasmid) used to knock down human RB1 expression was purchased from Horizon Discovery (Waterbeach, United Kingdom). On the basis of the knockdown efficiency of Rb1 protein expression in 3 HPV-negative cell lines (HN31, UMSCC4, and MDA88 6LN), shRblclones were selected (#2, #4, and #6) for this study. […] The mature antisense sequences were as follows: 5′-[sequence]-3′ (SEQ ID NO:1) (shRb1 #2), 5′-[sequence]-3′ (SEQ ID NO:2) (shRb1 #4), and 5′-[sequence]-3′ (SEQ ID NO:3) (shRb1 #6). To generate lentivirus-expressing shRNA for RB1, HEK 293T cells were transfected with GIPZ-non-silence (for the vector control virus) and GIPZ-shRB1 with jetPEI transfection reagent (RRID:CVCL_0063). The medium was changed 24 hours after transfection and then collected every 48 hours thereafter. The collected lentivirus-containing medium was centrifuged and then filtered (0.45 μM).

[2] = test system: PDX tumors HOSC144, HOSC19, HOSC156 (p16-positive oropharynx cancer); assay: In vivo tumor growth study, HPV-positive PDX models; design: species or system nude mice
Experimental: PDX tumors HOSC144 (FIG. 3A, FIG. 3E, FIG. 3F), HOSC19 (FIG. 3B), and HOSC156 (FIG. 3C) were implanted into the flanks of nude mice. After engraftment, mice were randomized and assigned into 1 of 2 treatment groups: vehicle (β-cyclodextrin, n=8) or alisertib (10 mg/kg, n=8). Mice were treated for 3 weeks by daily oral gavage. Tumor size was measured twice a week. FIG. 3A, FIG. 3B, and FIG. 3C show in vivo tumor growth curves for individual mice (left 3 panels). Survival (right panels) was measured using the Kaplan-Meier method. In FIG. 3D, HPV-negative UMSCC22A cells were injected subcutaneously (3×10^6 cells) on the right flanks of the mice. Once the tumor volume reached ≥60 mm^3, mice were randomized into treatment groups. Mice were treated with vehicle or 10 mg/kg alisertib by oral gavage for 5 days per week for 21 days. Tumor size was measured twice a week. […] The Ki67(%) was calculated as the ratio of proliferative cells to total cells in each field, using five random fields. […] The apoptotic (%) was calculated as the ratio of apoptotic cells to total cells in each field, using five random fields in HOSC144 PDX tumors after 8 or 21 days of treatment with either vehicle or alisertib. ** P≤0.01; *** P≤0.001. Bars, 100 μM.
The in vivo tumor growth study was performed in accordance with the Guide for the Care and Use of Laboratory Animals of the National Institutes of Health and approved by MD Anderson's Institutional Animal Care and Use Committee. The PDX models were generated as described previously (Peng, et al., J Transl Med 2013; 11:198), and subjected to qPCR as described to determine the HPV type (Chaturvedi, et al., The Journal of Infectious Diseases 2014; 210(3):441-7; Fakhry, et al, JAMA Oncol 2019; 5(7):985-92). Briefly, tumor tissue was cut into small fragments (5-6 mm) and implanted subcutaneously into the flanks of nude mice. The skin incisions were closed with skin clips that were removed after 10 to 15 days. Once tumors reached an average of 150 to 300 mm^3, the mice were randomized into either vehicle group or alisertib group. Alisertib (Takeda Pharmaceuticals, Lexington, MA; 10 mg/kg in 10% β-cyclodextrin) was administered via oral gavage once daily on a weekly schedule of 6 days on and 1 day off. Tumors were monitored daily, and tumor volume (length×width^2×0.5) was evaluated twice per week with digital calipers. Mice were euthanized when tumors reached 2000 mm^3. The endpoint for the survival studies was the tumor burden. Survival was measured using the Kaplan-Meier method. Survival curve analysis was performed with GraphPad Prism software version 9 (RRID:SCR_002798).
To test the effect of Aurora kinase inhibition in vivo, three patient-derived xenograft (PDX) models that were derived from patients with p16-positive oropharynx cancer [HOSC144 (HPV16, HPV52), HOSC19 (HPV18, HPV59), and HOSC 156 (HPV18)], were implanted in nude mice. A low dose of alisertib (10 mg/kg) was administered continuously for 3 weeks. […] In addition, an HPV-negative cell line with high Rb protein levels was also tested and it was observed that it was resistant to alisertib treatment (FIG. 3D).

[3] = test system: HPV-positive cancer cell lines (UMSCC47, CaSki, and MS751); assay: BrdU-TUNEL apoptosis assay, HPV-positive cell lines; assay type: cell-based; conditions: 50 nmol/L barasertib or 200 nmol/L alisertib, 72 hours or 2 doubling times
Experimental: BrdU positive apoptotic cells were detected and quantified. The bar graph indicates the percentage of apoptotic cells with fragmented DNA in HPV-positive and HPV-negative cell lines. Values are the means±the standard deviations for 3 independent experiments. FIG. 2B and FIG. 2C show immunoblots of cleaved PARP (Cl. PARP) and cleaved caspase-3 (Cl. Caspase-3) levels in 3-HPV positive and 3 HPV-negative cell lines after barasertib or alisertib treatment for 2 doubling times (FIG. 2B) or 72 hours (FIG. 2C). […] UM47, UMSCC47; GAPDH, glyceraldehyde 3-phosphate dehydrogenase.
To measure apoptosis, TUNEL staining was performed with an APO-BRDU Kit (BD Biosciences, San Jose, CA) and annexin V/propidium iodide staining with an FITC Annexin V Apoptosis Detection Kit PE (eBioscience, San Diego, CA) as described previously (Kalu, et al., Cancer Lett 2018; 431:64-72). […] Data were acquired with a 3-laser, 10-color Gallios flow cytometer (Beckman Coulter, Brea, CA) and analyzed using Kaluza software, RRID:SCR_016182 (Beckman Coulter, Brea, CA). […] Briefly, after drug treatment, cells were incubated with Senescence Green Probe, a fluorescence-based reagent that contains 2 galactoside moieties that make it specific to […]. The enzyme-cleaved product is retained within the cell, and it emits a fluorogenic signal that was measured at 490/514 nm using a flow cytometer. […]

[4] = test system: 16 HPV-positive and 17 HPV-negative HNSCC and cervical squamous cancer cell lines; assay: High-throughput drug screen (HTDS), whole panel, comparison by HPV status; assay type: cell-based; conditions: AOC_LD as a dichotomous variable
Experimental: The concordance correlation coefficient was computed to assess the reproducibility of the normalized growth rates of the 2 replicates. […] A chi-square test was applied to compare drug classification and the cluster membership. The Fisher exact test was applied to compare mutations status (wild-type and mutant) and drugs' response data (sensitive and resistant).
The effects of 864 unique drugs from 51 classes was tested in 16 HPV-positive and 17 HPV-negative HNSCC and cervical squamous cancer cell lines (Table 2) that were characterized previously (Kaiu, et al., Oncotarget 2017; 8(49):86369-83).

[5] = RB1 shRNA, 300 nmol/L, 24 hours
[6] = HOSC144 tumors, days 8 and 21, vs vehicle

COc1cc(Nc2ncc3c(n2)-c2ccc(Cl)cc2C(c2c(F)cccc2OC)=NC3)ccc1C(=O)O [ALISERTIB, alisertib]
cleaved PARP levels ([1]; RB1 depleted by transient transfection): increase in cleaved PARP levels
apoptosis (cleaved caspase-3 and cleaved PARP) in cells with reduced Rb levels [1, 5]: induced significant apoptosis
increase in annexin V-positive apoptotic cells when Rb was depleted [1, 5]: approximately 3 fold
apoptosis in control cells with detectable Rb protein levels ([1]; control shRNA, 300 nmol/L, 24 hours): did not induce apoptosis
response after treatment was stopped ([2]; 10 mg/kg oral gavage, 3 weeks): sustained response
tumor growth ([2]; 10 mg/kg oral gavage, 3 weeks): clear evidence of tumor regression
survival duration ([2]; 10 mg/kg oral gavage, 3 weeks, Kaplan-Meier): concordant increase in survival duration
Ki67 staining in tumors [2, 6]: significantly lower levels of Ki67 staining
cleaved caspase-3 in tumors [2, 6]: increased levels of cleaved caspase-3
TUNEL-positive apoptotic nuclei [3]: significantly increased
efficacy in HPV-positive vs HPV-negative cell lines [4]: tended to be more effective in HPV-positive cell lines
